Target: T1, GST-tagged-Wee1 kinase (Homo sapiens, UniProt P30291)
T1 construct: purchased Carnabio (Carna Biosciences) 05-177
Experiment: Wee1 time-resolved fluorescence equilibrium binding assay (displacement of Oregon Green-labeled ATP-competitive kinase probe)
Settings: read-out: Wee-1 inhibition (Ki)
How it was run: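 Ki values derive from competitive displacement, under equilibrium, of a fast-reversible ATP-site Oregon Green kinase probe from GST-tagged Wee1, detected by time-resolved fluorescence.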

T1 sequence (P30291 whole entry): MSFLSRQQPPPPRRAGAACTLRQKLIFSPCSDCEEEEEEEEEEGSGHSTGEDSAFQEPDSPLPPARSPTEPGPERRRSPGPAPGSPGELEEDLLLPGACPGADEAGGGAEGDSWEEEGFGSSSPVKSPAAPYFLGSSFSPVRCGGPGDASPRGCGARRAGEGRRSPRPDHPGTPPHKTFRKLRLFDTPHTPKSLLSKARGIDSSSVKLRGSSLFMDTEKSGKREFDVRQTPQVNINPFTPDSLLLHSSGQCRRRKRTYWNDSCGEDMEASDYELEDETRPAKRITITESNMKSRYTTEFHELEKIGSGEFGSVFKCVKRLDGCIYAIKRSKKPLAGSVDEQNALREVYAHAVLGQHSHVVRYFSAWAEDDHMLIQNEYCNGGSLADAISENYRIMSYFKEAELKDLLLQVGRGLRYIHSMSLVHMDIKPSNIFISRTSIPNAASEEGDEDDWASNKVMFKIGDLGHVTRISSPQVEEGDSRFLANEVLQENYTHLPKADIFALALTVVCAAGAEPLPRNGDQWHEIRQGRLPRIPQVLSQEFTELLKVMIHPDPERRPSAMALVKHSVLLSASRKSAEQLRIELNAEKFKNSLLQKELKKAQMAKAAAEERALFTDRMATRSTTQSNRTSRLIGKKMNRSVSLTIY

SMILES	Ki [nM]
CN(C)[C@@H]1CCN(c2ccc(Nc3ncc4c(=O)n(-c5c(Cl)cccc5Cl)c5nccn5c4n3)cc2)C1 [Example 283, 6-(2,6-dichlorophenyl)-2-({4-[(3R)-3-(dimethylamino)pyrrolidin-1-yl]phenyl}amino)imidazo[1,2-a]pyrimido[5,4-e]pyrimidin-5(6H)-one]	< 10
CC(C)NCCN(c1ccc(Nc2ncc3c(=O)n(-c4c(Cl)cccc4Cl)c4nccn4c3n2)cc1)C(C)C [Example 328, 6-(2,6-dichlorophenyl)-2-[(4-{propan-2-yl[2-(propan-2-ylamino)ethyl]amino}phenyl)amino]imidazo[1,2-a]pyrimido[5,4-e]pyrimidin-5(6H)-one]	< 10
CC1(C)CN(S(C)(=O)=O)Cc2cc(Nc3ncc4c(=O)n(-c5c(Cl)cccc5Cl)c5nccn5c4n3)ccc21 [Example 319, 6-(2,6-dichlorophenyl)-2-{[4,4-dimethyl-2-(methylsulfonyl)-1,2,3,4-tetrahydroisoquinolin-7-yl]amino}imidazo[1,2-a]pyrimido[5,4-e]pyrimidin-5(6H)-one]	< 10
O=c1c2cnc(Nc3ccccc3)nc2n2ccnc2n1-c1c(Cl)cccc1Cl [Example 84, 6-(2,6-dichlorophenyl)-2-(phenylamino)imidazo[1,2-a]pyrimido[5,4-e]pyrimidin-5(6H)-one]	< 10
O=c1c2cnc(Nc3ccc4c(c3)CNCC43CC3)nc2n2ccnc2n1-c1c(Cl)cc(F)cc1Cl [Example 160, 6-(2,6-dichloro-4-fluorophenyl)-2-(2′,3′-dihydro-1′H-spiro[cyclopropane-1,4′-isoquinolin]-7′-ylamino)imidazo[1,2-a]pyrimido[5,4-e]pyrimidin-5(6H)-one]	< 10
O=c1c2cnc(Nc3ccc(CN4CCCC4)cc3)nc2n2ccnc2n1-c1ccccc1Cl [Example 9, 6-(2-chlorophenyl)-2-{[4-(pyrrolidin-1-ylmethyl)phenyl]amino}imidazo[1,2-a]pyrimido[5,4-e]pyrimidin-5(6H)-one]	< 10
CN1CCN(c2ccc(Nc3ncc4c(=S)n(-c5ccccc5Cl)c5nccn5c4n3)cc2)CC1 [Example 332, 6-(2-chlorophenyl)-2-{[4-(4-methylpiperazin-1-yl)phenyl]amino}imidazo[1,2-a]pyrimido[5,4-e]pyrimidine-5(6H)-thione]	< 10
O=c1c2cnc(Nc3ccc(CN4CCOCC4)cc3)nc2n2ccnc2n1-c1ccccc1Cl [Example 78, 6-(2-chlorophenyl)-2-{[4-(morpholin-4-ylmethyl)phenyl]amino}imidazo[1,2-a]pyrimido[5,4-e]pyrimidin-5(6H)-one]	< 10
CCc1cc(Nc2ncc3c(=O)n(-c4ccccc4Cl)c4nccn4c3n2)ccc1N1CCN(C)CC1 [Example 112, 6-(2-chlorophenyl)-2-{[3-ethyl-4-(4-methylpiperazin-1-yl)phenyl]amino}imidazo[1,2-a]pyrimido[5,4-e]pyrimidin-5(6H)-one]	< 10
CC(=O)N1CCc2ccc(Nc3ncc4c(=O)n(-c5c(Cl)cccc5Cl)c5nccn5c4n3)cc2C1 [Example 329, 2-[(2-acetyl-1,2,3,4-tetrahydroisoquinolin-7-yl)amino]-6-(2,6-dichlorophenyl)imidazo[1,2-a]pyrimido[5,4-e]pyrimidin-5(6H)-one]	< 10
O=c1c2cnc(Nc3ccc4c(c3)CNCC43CC3)nc2n2ccnc2n1-c1ccccc1Cl [Example 90, 6-(2-chlorophenyl)-2-(2′,3′-dihydro-1′H-spiro[cyclopropane-1,4′-isoquinolin]-7′-ylamino)imidazo[1,2-a]pyrimido[5,4-e]pyrimidin-5(6H)-one]	< 10
CN1CCN(c2ccc(Nc3ncc4c(=O)n(-c5ccccc5OC(F)(F)F)c5nccn5c4n3)cc2)CC1 [Example 341, 2-{[4-(4-methylpiperazin-1-yl)phenyl]amino}-6-[2-(trifluoromethoxy)phenyl]imidazo[1,2-a]pyrimido[5,4-e]pyrimidin-5(6H)-one]	> 100
O=c1c2cnc(Nc3cnc4c(c3)CNCC4)nc2n2ccnc2n1-c1c(F)cccc1Cl [Example 277, 6-(2-chloro-6-fluorophenyl)-2-(5,6,7,8-tetrahydro-1,6-naphthyridin-3-ylamino)imidazo[1,2-a]pyrimido[5,4-e]pyrimidin-5(6H)-one]	10 to 100
CN1CCN(C(=O)c2ccc(Nc3ncc4c(=O)n(-c5ccccc5Cl)c5nccn5c4n3)cc2)CC1 [Example 42, 6-(2-chlorophenyl)-2-({4-[(4-methylpiperazin-1-yl)carbonyl]phenyl}amino)imidazo[1,2-a]pyrimido[5,4-e]pyrimidin-5(6H)-one]	10 to 100
CCN1Cc2cc(Nc3ncc4c(=O)n(-c5ccccc5Cl)c5nccn5c4n3)ccc2C(C)(C)C1 [Example 161, 6-(2-chlorophenyl)-2-[(2-ethyl-4,4-dimethyl-1,2,3,4-tetrahydroisoquinolin-7-yl)amino]imidazo[1,2-a]pyrimido[5,4-e]pyrimidin-5(6H)-one]	< 10
O=c1c2cnc(Nc3ccc(N4C[C@H]5C[C@@H]4CN5)cc3)nc2n2ccnc2n1-c1c(Cl)cccc1Cl [Example 175, 2-({4-[(1R,4R)-2,5-diazabicyclo[2.2.1]hept-2-yl]phenyl}amino)-6-(2,6-dichlorophenyl)imidazo[1,2-a]pyrimido[5,4-e]pyrimidin-5(6H)-one]	< 10
CN(C)CCOc1ccc(Nc2ncc3c(=O)n(-c4ccccc4Cl)c4nccn4c3n2)cc1 [Example 35, 6-(2-chlorophenyl)-2-({4-[2-(dimethylamino)ethoxy]phenyl}amino)imidazo[1,2-a]pyrimido[5,4-e]pyrimidin-5(6H)-one]	< 10
CC(=O)Nc1ccc(Nc2ncc3c(=O)n(-c4ccccc4Cl)c4nccn4c3n2)cc1 [Example 57, N-(4-{[6-(2-chlorophenyl)-5-oxo-5,6-dihydroimidazo[1,2-a]pyrimido[5,4-e]pyrimidin-2-yl]amino}phenyl)acetamide]	10 to 100
CC(C)N1CCN(c2ccc(Nc3ncc4c(=O)n(-c5ccccc5Cl)c5nccn5c4n3)cc2)CC1 [Example 29, 6-(2-chlorophenyl)-2-({4-[4-(propan-2-yl)piperazin-1-yl]phenyl}amino)imidazo[1,2-a]pyrimido[5,4-e]pyrimidin-5(6H)-one]	< 10
CN(C)C1Cc2ccc(Nc3ncc4c(=O)n(-c5ccccc5Cl)c5nccn5c4n3)cc2C1 (centres unmarked) [Example 94, 6-(2-chlorophenyl)-2-{[2-(dimethylamino)-2,3-dihydro-1H-inden-5-yl]amino}imidazo[1,2-a]pyrimido[5,4-e]pyrimidin-5(6H)-one]	< 10
O=c1c2cnc(Nc3ccc(N4CCCC4C(F)(F)F)cc3)nc2n2ccnc2n1-c1ccccc1Cl (centres unmarked) [Example 289, 6-(2-chlorophenyl)-2-({4-[2-(trifluoromethyl)pyrrolidin-1-yl]phenyl}amino)imidazo[1,2-a]pyrimido[5,4-e]pyrimidin-5(6H)-one]	10 to 100
O=c1c2cnc(Nc3ccc(-n4ccnc4)cc3)nc2n2ccnc2n1-c1ccccc1Cl [Example 80, 6-(2-chlorophenyl)-2-{[4-(1H-imidazol-1-yl)phenyl]amino}imidazo[1,2-a]pyrimido[5,4-e]pyrimidin-5(6H)-one]	10 to 100
CC(C)C(=O)N1Cc2cc(Nc3ncc4c(=O)n(-c5c(F)cccc5Cl)c5nccn5c4n3)ccc2C2(CC2)C1 [Example 265, 6-(2-chloro-6-fluorophenyl)-2-{[2′-(2-methylpropanoyl)-2′,3′-dihydro-1′H-spiro[cyclopropane-1,4′-isoquinolin]-7′-yl]amino}imidazo[1,2-a]pyrimido[5,4-e]pyrimidin-5(6H)-one]	< 10
CN1CCN(c2ccc(Nc3ncc4c(=O)n(-c5ccc(C(F)(F)F)cc5Cl)c5nccn5c4n3)cc2)CC1 [Example 340, 6-[2-chloro-4-(trifluoromethyl)phenyl]-2-{[4-(4-methylpiperazin-1-yl)phenyl]amino}imidazo[1,2-a]pyrimido[5,4-e]pyrimidin-5(6H)-one]	> 100
O=c1c2cnc(Nc3ccccc3)nc2n2ccnc2n1-c1ccccc1Cl [Example 2, 2-anilino-6-(2-chlorophenyl)imidazo[1,2-a]pyrimido[5,4-e]pyrimidin-5(6H)-one]	10 to 100
N#CCCN(c1ccc(Nc2ncc3c(=O)n(-c4ccccc4Cl)c4nccn4c3n2)cc1)C1CC1 [Example 233, 3-[(4-{[6-(2-chlorophenyl)-5-oxo-5,6-dihydroimidazo[1,2-a]pyrimido[5,4-e]pyrimidin-2-yl]amino}phenyl)(cyclopropyl)amino]propanenitrile]	10 to 100

From US8710065B2, “Tricyclic inhibitors of kinases” (AbbVie Inc., priority 2011, dated 2014)
